Data as given in patent US12251388B1, “Methods of treating ischemic stroke at risk for cerebral or cerebellar edema” (REMEDY PHARMACEUTICALS, INC., priority 2024, dated 2025).

Tested on: large hemispheric infarction (LHI) patients at high risk for cerebral edema
Assay: CHARM trial: mRS score at 90 days, shift analysis on 5-category ordinal scale (0/1 and 5/6 collapsed), intravenous glibenclamide versus placebo
Format: in vivo, human
Conditions: for Common Odds Ratio: mITT population (aged ≤70 years), drug vs placebo
Excerpt: The CHARM trial evaluated the safety and efficacy of intravenous glibenclamide as a treatment for large hemispheric infarction (LHI) patients at high risk for cerebral edema.
Patients meeting the following criteria were included: • A clinical diagnosis of acute ischemic stroke in the middle cerebral artery (MCA) territory. • A large hemispheric infarction defined as; lesion volume of 80 to 300 centimeters cubed (cm^3) on magnetic resonance imaging (MRI) diffusion-weighted imaging (DWI), or computed tomography perfusion (CTP), or an Alberta Stroke Program Early CT Score (ASPECTS) of 1 to 5 with involvement of at least 2 defined cortical regions. • Screening National Institutes of Health Stroke Scale (NIHSS)>=10. • At the time of randomization, and in the Investigator's judgement, it must be feasible for study drug treatment infusion to be initiated no later than 10 hours after time of symptom onset, if known, or the time last known normal. • Participants who wake with stroke may be included if neurological and other exclusion criteria are satisfied. The time of stroke onset is to be taken as the midpoint between sleep onset (or last known to be normal) and time of waking.
Patients meeting the following criteria were excluded: • Participant is likely to have supportive care withdrawn on the first day. • Commitment to decompressive craniectomy (DC) prior to enrollment. • Evidence of concurrent infarction in the contralateral hemisphere sufficiently serious so as to affect functional outcome. Pre-Specified Primary Endpoint
Modified Rankin Scale (mRS) score at 90 days analyzed as a shift analysis using a 5-category ordinal scale with 0/1 and 5/6 collapsed. The primary efficacy analysis was pre-specified to be conducted in participants 18-70 years of age (inclusive) who were randomized and receive study treatment (the modified intent-to-treat [mITT] population].
Five hundred thirty-five subjects were enrolled, with 268 treated with placebo and 267 treated with intravenous glyburide. The mITT population (the primary analysis population), those participants aged≤70 years who received any study drug, consisted of 431 subjects.
An analysis was conducted in the mITT population to examine effects of limits on the NIHSS. […] A common odds ratio of greater than 1 indicates a positive drug effect and in the group having an NIHSS of ≤20, the common odds ratio exceeded 1.7, indicating a robust effect in favor of the drug.

[1] = mRS scores 5 and 6 combined, baseline NIHSS ≥10 and ≤20

In the case of COc1ccc(Cl)cc1C(=O)NCCc1ccc(S(=O)(=O)NC(=O)NC2CCCCC2)cc1 [intravenous glyburide, glyburide], the “Common Odds Ratio” value (NIHSS cutoff ≤18, mRS at 90 days, n=197) is reported as 2.027, the “Common Odds Ratio” value (NIHSS cutoff ≤19, mRS at 90 days, n=232) is reported as 1.846 and the “Common Odds Ratio” value (NIHSS cutoff ≤21, mRS at 90 days, n=303) is reported as 1.260. For the same compound, the “Common Odds Ratio” value (NIHSS cutoff ≤22, mRS at 90 days, n=328) was 1.144, the “Common Odds Ratio” value (NIHSS cutoff ≤23, mRS at 90 days, n=352) was 1.142 and the “lesion volume at the "no effect" level of the treatment effect (mRS)” value [1] was “approximately 140 cm^3”. For the same compound, the “lesion volume at which a robust treatment effect (mRS) is seen” value [1] was at most 125 cm^3.
